Consider 48 molecules from ChEMBL document CHEMBL2380241, “Identification of novel SIRT3 inhibitor scaffolds by virtual screening” (Bioorg Med Chem Lett, 2013).

Assay [1] has as its target T1, NAD-dependent protein deacetylase sirtuin-3, mitochondrial (Homo sapiens) (UniProt Q9NTG7).
T1 sequence (whole entry): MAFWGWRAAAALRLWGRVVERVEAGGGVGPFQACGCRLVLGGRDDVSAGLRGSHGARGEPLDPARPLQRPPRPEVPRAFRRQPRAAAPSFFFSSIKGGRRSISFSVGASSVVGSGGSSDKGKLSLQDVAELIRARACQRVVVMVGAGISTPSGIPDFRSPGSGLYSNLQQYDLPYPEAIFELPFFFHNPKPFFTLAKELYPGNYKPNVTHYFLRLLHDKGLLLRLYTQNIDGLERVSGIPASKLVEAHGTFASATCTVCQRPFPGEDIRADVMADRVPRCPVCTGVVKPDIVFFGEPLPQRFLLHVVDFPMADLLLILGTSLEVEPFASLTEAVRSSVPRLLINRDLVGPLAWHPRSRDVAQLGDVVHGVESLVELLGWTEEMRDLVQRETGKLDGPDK
Kind of assay: Inhibition of recombinant His-tagged SIRT3 (unknown origin) using Fluor de Lys acetylated KI179 as substrate at 200 uM incubated for 5 mins followed by enzyme addition measured after 1 hr by fluorescence assay relative to control.

Assay [2] concerns the target T2, NAD-dependent protein deacetylase sirtuin-1 (Homo sapiens) (UniProt Q96EB6).
T2 sequence (whole entry): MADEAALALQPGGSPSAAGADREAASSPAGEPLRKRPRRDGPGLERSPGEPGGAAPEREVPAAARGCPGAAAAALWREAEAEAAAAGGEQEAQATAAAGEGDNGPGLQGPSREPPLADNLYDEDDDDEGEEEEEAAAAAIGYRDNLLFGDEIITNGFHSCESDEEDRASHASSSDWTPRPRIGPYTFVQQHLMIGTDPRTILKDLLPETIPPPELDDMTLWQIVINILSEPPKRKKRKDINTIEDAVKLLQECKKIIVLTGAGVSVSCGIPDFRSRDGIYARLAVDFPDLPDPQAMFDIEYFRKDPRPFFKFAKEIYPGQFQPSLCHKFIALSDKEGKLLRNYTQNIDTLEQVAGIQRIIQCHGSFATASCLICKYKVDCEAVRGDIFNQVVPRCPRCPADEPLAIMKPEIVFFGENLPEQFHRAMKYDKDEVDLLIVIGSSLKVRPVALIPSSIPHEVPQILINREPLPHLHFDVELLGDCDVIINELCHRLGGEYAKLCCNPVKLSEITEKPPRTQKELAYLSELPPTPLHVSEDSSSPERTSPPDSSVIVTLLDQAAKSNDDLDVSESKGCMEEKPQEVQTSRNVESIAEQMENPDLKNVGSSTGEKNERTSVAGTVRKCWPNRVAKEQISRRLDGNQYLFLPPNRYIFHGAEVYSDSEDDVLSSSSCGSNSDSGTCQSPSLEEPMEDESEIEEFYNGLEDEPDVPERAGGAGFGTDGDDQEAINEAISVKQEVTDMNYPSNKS
Kind of assay: Inhibition of recombinant GST-tagged SIRT1 (unknown origin) using Fluor de Lys acetylated KI177 as substrate at 200 uM incubated for 5 mins followed by enzyme addition measured after 1 hr by fluorescence assay relative to control.

Assay [3] deals with T3, NAD-dependent protein deacetylase sirtuin-2 (Homo sapiens) (UniProt Q8IXJ6).
T3 sequence (whole entry): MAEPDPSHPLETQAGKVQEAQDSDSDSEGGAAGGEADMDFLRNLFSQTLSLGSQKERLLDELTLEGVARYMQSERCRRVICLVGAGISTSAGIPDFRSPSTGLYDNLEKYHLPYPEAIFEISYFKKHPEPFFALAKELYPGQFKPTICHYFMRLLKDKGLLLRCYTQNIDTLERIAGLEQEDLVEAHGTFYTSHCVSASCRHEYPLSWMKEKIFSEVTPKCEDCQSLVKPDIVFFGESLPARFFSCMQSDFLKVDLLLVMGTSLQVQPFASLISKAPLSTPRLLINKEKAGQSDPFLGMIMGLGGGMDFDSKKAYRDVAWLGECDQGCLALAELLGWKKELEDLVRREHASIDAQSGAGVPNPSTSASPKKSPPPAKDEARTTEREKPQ
Kind of assay: Inhibition of recombinant GST-tagged SIRT2 (unknown origin) using Fluor de Lys acetylated KI179 as substrate at 200 uM incubated for 5 mins followed by enzyme addition measured after 1 hr by fluorescence assay relative to control.

Calls of active or inactive are those of the source. The calls are words filed in the database; no cut-off is given here.

`O=C(NCC1CCN(Cc2ccccc2Cl)CC1)Nc1cccc(Cl)c1`: the inhibition in assay [1] was 7.5%.

Regarding `O=C(Cc1ccccc1)Nc1ccc2oc(-c3ccc(Cl)cc3Cl)nc2c1`, the inhibition in assay [2] was found to be 27%; in assay [3] it was 72%; in assay [1], 71%.

In the case of `NS(=O)(=O)c1ccc(NC(=O)COC(=O)CN2C(=O)C(=O)c3ccccc32)cc1`, the inhibition in assay [1] was determined as 34%.

On to `Cc1ccccc1CC1CCN(CCCNC(=O)Nc2ccccc2)CC1`, for which the inhibition in assay [1] came out at 10%.

As for `O=C(Cc1ccc(Cl)cc1)Nc1ccc2oc(-c3ccccc3F)nc2c1`, in assay [1], the inhibition turned out to be 17%.

Take `Cc1ccc(N2C(=O)CC(N3CCN(c4ccc(F)cc4)CC3)C2=O)cc1` (stereo not given): in assay [1], the inhibition worked out at 6.6%.

On to `COc1cccc(-c2noc(CCC(=O)Nc3ccc(NC(C)=O)cc3)n2)c1`, for which, in assay [1], the inhibition came out at 6.8%.

`O=C(Cc1ccccc1)Nc1ccc2oc(-c3cc(Cl)ccc3Cl)nc2c1`: the inhibition in assay [2] worked out at 33%; in assay [3] it was 73%; in assay [1] it was 65%.

Regarding `O=C(Nc1ccc(Nc2ccccc2)cc1)c1c(Cl)cccc1Cl`, in assay [1], the inhibition came out at 22%.

In the case of `O=C1CC(N2CCN(c3ccc(O)cc3)CC2)C(=O)N1c1ccccc1` (stereo not given), in assay [1], the inhibition is 6.5%.

In the case of `Cc1cccc(-c2nc3cc(NC(=O)Cc4ccccc4)ccc3o2)c1`, in assay [1], the inhibition worked out at 32%.

Regarding `O=C1CC(N2CCN(c3ccc(F)cc3)CC2)C(=O)N1Cc1ccccc1` (stereo not given), in assay [1], the inhibition was determined as 6.9%.

For `CCOc1ccc(N2C(=O)CC(N3CCN(C(=O)c4ccccc4)CC3)C2=O)cc1` (stereo not given), the inhibition in assay [1] stood at 5%.

In the case of `O=C1CC(N2CCN(c3cccc(C(F)(F)F)c3)CC2)C(=O)N1c1ccc(I)cc1` (stereo not given), in assay [1], the inhibition is 11%.

Consider `O=C(/C=C/c1ccccc1)Nc1ccc2oc(-c3ccccc3Cl)nc2c1`, for which the inhibition is 27% in assay [2], 78% in assay [3] and 48% in assay [1].

As for `O=C(Cc1ccccc1)Nc1ccc2oc(-c3ccccc3F)nc2c1`, in assay [1], the inhibition turned out to be 16%.

Turning to `O=C(Cc1ccccc1)Nc1ccc2oc(-c3ccccc3Cl)nc2c1`, the inhibition was determined as 17% in assay [2], 44% in assay [3] and 51% in assay [1].

In the case of `O=C(Cc1ccccc1)Nc1ccc2oc(-c3cccc(Cl)c3)nc2c1`, in assay [1], the inhibition stood at 17%.

`O=C(Cc1ccccc1)Nc1ccc2oc(-c3ccccc3Br)nc2c1`: in assay [1], the inhibition was 33%.

As to `COc1cccc(-c2nc3cc(NC(=O)Cc4ccccc4)ccc3o2)c1`, in assay [1], the inhibition was determined as 44%.

As to `O=C1CC(N2CCN(c3ccc(Cl)cc3)CC2)C(=O)N1c1ccc(F)cc1` (stereo not given), the inhibition in assay [1] stood at 9.2%.

Take `O=C(Cc1ccccc1)Nc1ccc2oc(-c3ccc(Cl)cc3)nc2c1`: the inhibition in assay [1] stood at 13%.

For the molecule `COc1ccc(N2C(=O)CC(N3CCN(c4ccc(S(C)(=O)=O)cc4)CC3)C2=O)cc1` (stereo not given), in assay [1], the inhibition was found to be 5.6%.

Take `O=C1CC(N2CCN(c3cccc(C(F)(F)F)c3)CC2)C(=O)N1c1cccc(Cl)c1` (stereo not given): in assay [1], the inhibition was 13%.

Take `CC(=O)Nc1ccc(NC(=O)CCC(=O)OCC(=O)c2cccc([N+](=O)[O-])c2)cc1`: the inhibition in assay [1] was 6.7%.

For `Cc1cccc(N2C(=O)CC(N3CCN(c4cccc(C(F)(F)F)c4)CC3)C2=O)c1` (stereo not given), the inhibition in assay [1] was 13%.

Regarding `O=C(CSc1ncnc2c1oc1ccccc12)Nc1cccc(O)c1`, in assay [2], the inhibition result is “inactive”. The inhibition amounted to 35% in assay [3] and 39% in assay [1].

For the molecule `O=C(c1ccccc1)N1CCN(C2CC(=O)N(c3cccc(Cl)c3)C2=O)CC1` (stereo not given), in assay [1], the inhibition worked out at 11%.

Regarding `NS(=O)(=O)c1ccc(CCNC2CC(=O)N(c3ccc(Cl)c(Cl)c3)C2=O)cc1` (stereo not given), the inhibition in assay [1] stood at 11%.

As to `COc1ccc(N2C(=O)CC(N3CCN(c4ccccc4O)CC3)C2=O)cc1` (stereo not given), the inhibition in assay [1] came out at 8.4%.

Regarding `O=C(Cc1ccccc1)Nc1ccc2oc(-c3cccc(Cl)c3Cl)nc2c1`, the inhibition in assay [2] worked out at 19%; in assay [3], 40%; in assay [1], 48%.

Consider `O=C1CC(N2CCN(c3cccc(C(F)(F)F)c3)CC2)C(=O)N1c1ccc(Cl)cc1` (stereo not given), for which the inhibition in assay [1] came to 20%.

On to `COc1ccc(N2C(=O)CC(NCCc3ccc(S(N)(=O)=O)cc3)C2=O)cc1` (stereo not given), for which the inhibition in assay [1] came to 7.6%.

Consider `O=C1C(Cl)=C(Nc2cccc(O)c2)C(=O)N1CCc1ccccc1`, for which the inhibition in assay [1] came to 72%.

For `O=C(CSCC(=O)Nc1ccc2ccccc2c1)NCc1ccccc1`, the inhibition in assay [1] stood at 6.3%.

As to `O=C1CC(N2CCN(c3ccc([N+](=O)[O-])cc3)CC2)C(=O)N1c1ccccc1` (stereo not given), in assay [1], the inhibition was determined as 74%.

As to `Cc1cccc(CN2CCC(CNC(=O)NCc3ccc(F)cc3)CC2)c1`, the inhibition in assay [1] was found to be 5.6%.

Turning to `COc1ccc(CCNC2CC(=O)N(CCc3ccc(OC)c(OC)c3)C2=O)cc1OC` (stereo not given), the inhibition in assay [1] stood at 16%.

With `Cc1ccc(NC(=O)NCC2CCN(Cc3cc(C)ccc3Cl)CC2)c(C)c1`, in assay [1], the inhibition stood at 7.5%.

On to `CCOc1ccc(N2C(=O)CC(N3CCN(C(=O)c4cccnc4)CC3)C2=O)cc1` (stereo not given), for which the inhibition in assay [1] stood at 10%.

`O=C(/C=C/c1ccccc1)Nc1ccc2oc(-c3ccccc3F)nc2c1`: the inhibition in assay [1] came out at 38%.

Turning to `O=C(CCC(=O)Nc1ccc(F)c(Cl)c1)Nc1ccc(F)c(Cl)c1`, in assay [1], the inhibition came to 1.9%.

With `O=C1CC(N2CCC(Cc3ccccc3)CC2)C(=O)N1c1ccc(F)cc1` (stereo not given), in assay [1], the inhibition is 15%.

With `O=C1CC(N2CCN(c3ccc(F)cc3)CC2)C(=O)N1c1ccc2c(c1)OCO2` (stereo not given), the inhibition in assay [1] is 6.4%.

Turning to `Cc1ccc(-c2nc3cc(NC(=O)Cc4ccccc4)ccc3o2)cc1`, in assay [1], the inhibition stood at 17%.

In the case of `O=C(Cc1ccccc1)Nc1ccc2oc(-c3cc(F)c(F)cc3Cl)nc2c1`, the inhibition in assay [1] was determined as 41%.

As to `O=C(Cc1ccccc1)Nc1ccc2oc(-c3ccc(F)cc3Cl)nc2c1`, the inhibition in assay [1] was 13%.

For `O=C(Cc1ccc(Cl)cc1)Nc1ccc2oc(-c3ccccc3Br)nc2c1`, in assay [1], the inhibition was found to be 32%.
